Where “and” joins values, the source holds several entries; their conditions need not be identical. Equal entries are not always repeated. Where two headings read alike, the source gives them in different places.
What was measured:
[1] = test system: non-tumor cells (NIH-3T3 and MC3T3); test: Cell viability assay (MTT), summary over the non-tumor models; assay type: cell-based, Murine; conditions: for mean PI value in NIH-3T3 and MC3T3 non-tumoral cells: dark vs blue light 458 nm
Description: (§1) Cells were grown in humidified incubators at 37° C. in 5% CO2. Murine MC3T3 osteoblast and NIH-3T3 fibroblast cells-used as non-tumor cell models-were cultured in a-MEM medium and DMEM medium supplemented with 10% fetal bovine serum (FBS) and 1% Penicillin/Streptomycin (P/S) antibiotics, respectively. Human T24 bladder, MGHU3 bladder, Scaber bladder, A549 lung, MCF7 breast, MiaPaCa2 pancreas cancer cells were cultured in DMEM medium supplemented with 10% FBS and 1% P/S antibiotics. […] Human Hela cervix and HepG2 liver cancer cells were cultured EMEM medium supplemented with 10% FBS and 1% P/S antibiotics.
(§2) MTT reagent (3-(4,5-dimethylthiazol-2-yl)-2,5-diphenyltetrazolium bromide) was used to determine cell death as originally described by Mosmann. Briefly, cells were seeded from 5,000 to 10,000 cells/well in 24-well plates (1 mL) depending on the cell type and allowed to attach overnight. The complexes were prepared in DMSO. The concentration of the complexes was calculated based on the elemental composition of the complexes determined by the elemental analyses. All cell viability experiments were carried out with a fixed concentration of 0.1% (v/v) DMSO. After 72 h of treatment, cells were incubated at 37° C. and 5% CO2 with 25 μL of MTT solution (5 mg/ml; Sigma-Aldrich) in 24-well plates for 3 to 4 h. After solubilization with 500 μL of DMSO, formazan was quantified spectrophotometrically with a microplate reader at 570 nm absorbance (ClarioSTAR, BMG LabTech). […] All the results were calculated from data obtained in at least three independent experiments performed in triplicate.
(§3) Two sets of experiments were conducted in parallel for each complex to be studied:
(§4) 1. The cells were incubated with the different complexes (in the dark) for 72 h.
(§5) 2. The cells were incubated for 8 h with the different complexes (in the dark), then irradiated for 10 min, followed by an incubation in the dark up to 72 h.

[2] = test system: MiaPaCa2 pancreas cancer cells; test: Cell viability assay (MTT), dark and blue light; assay type: cell-based, Human; conditions: for Photosensitizing index (PI): MiaPaCa2, dark vs blue light; for GI50: read-out: GI50
Method in brief: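 Tumor lines and non-tumor murine MC3T3 osteoblasts and NIH-3T3 fibroblasts were seeded overnight and treated with complexes at 0.1% (v/v) DMSO for 72 h. Light samples were irradiated 10 min after 8 h of dark incubation. Viability was measured by MTT absorbance at 570 nm.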

MCF7 breast cancer cells = test: Cell viability assay (MTT), dark and blue light; assay type: cell-based, Human; conditions: for Photosensitizing index (PI): MCF7, dark vs blue light; for Photosensitizing index (PI) MCF7: dark vs blue light 458 nm
Method in brief: (§6)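 Cells seeded 5,000–10,000/well, treated in 0.1% (v/v) DMSO either 72 h in dark or 8 h dark, 10 min 458 nm blue LED irradiation (9.6 W), then dark to 72 h. Viability by MTT, absorbance 570 nm; at least three independent experiments in triplicate.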

[3] = test system: PC-3 prostate cancer cells (PSMA-negative); test: Cell viability assay (MTT), dark and blue light; assay type: cell-based, Human; conditions: for Photosensitizing index (PI): PC3, dark vs blue light
Method in brief: (§7)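 MTT, 570 nm. Complexes at fixed 0.1% DMSO; dark arm 72 h; light arm 8 h preincubation, 10 min 458 nm LED irradiation, dark up to 72 h total. RPMI/10% FBS culture, 37 °C, 5% CO2; ≥3 independent experiments in triplicate.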

[4] = test system: cancer cells (all tumor cell lines tested); test: Cell viability assay (MTT), summary over the cancer cell lines tested; assay type: cell-based, Human; conditions: for PI values, mean over cancer cells / PI values, median over cancer cells: dark vs blue light 458 nm
Description: as §1, §2, §3, §4, §5

[5] = test system: DU-145 prostate cancer cells (PSMA-negative); test: Cell viability assay (MTT), dark and blue light; assay type: cell-based, Human
Method in brief: as §7

[6] = test system: Scaber bladder cancer cells; test: Cell viability assay (MTT), dark and blue light; assay type: cell-based, Human; conditions: for Photosensitizing index (PI) Scaber: dark vs blue light 458 nm
Method in brief: as §6

[7] = PC3, blue light, read-out: GI50
[8] = 8 h in the dark, blue light 458 nm 10 min, then dark up to 72 h, read-out: GI50 MCF7 Blue
[9] = in the dark, 72 h, read-out: GI50 MCF7 Dark
[10] = 8 h in the dark, blue light 458 nm 10 min, then dark up to 72 h, read-out: GI50 Scaber Blue
[11] = in the dark, 72 h, read-out: GI50 Scaber Dark

| SMILES | mean PI value in NIH-3T3 and MC3T3 non-tumoral cells [1] [fold] | Photosensitizing index (PI) [2] | SI (vs NIH-3T3) ([2]; MiapaCa2, blue light) | SI (vs NIH-3T3) (MCF7 breast cancer cells; MCF7, blue light) | SI (vs MC3T3) (MCF7 breast cancer cells; MCF7, dark) | SI (vs NIH-3T3) (MCF7 breast cancer cells; MCF7, dark) | Photosensitizing index (PI) (MCF7 breast cancer cells) | GI50 (MCF7 breast cancer cells; MCF7, dark, read-out: GI50) | GI50 [3, 7] [µM] | SI (vs NIH-3T3) ([3]; PC3, dark) | Photosensitizing index (PI) [3] | PI values, mean over cancer cells [4] [fold] | GI50 (MCF7 breast cancer cells; [8]) [µM] | Photosensitizing index (PI) MCF7 (MCF7 breast cancer cells) | GI50 (MCF7 breast cancer cells; [9]) [µM] | GI50 [6, 10] [µM] | SI (vs MC3T3) Scaber Dark [6] | Photosensitizing index (PI) Scaber [6] | GI50 [6, 11] [µM] | PI values, median over cancer cells [4] [fold] | further results |
| --- | --- | --- | --- | --- | --- | --- | --- | --- | --- | --- | --- | --- | --- | --- | --- | --- | --- | --- | --- | --- | --- |
| F[P-](F)(F)(F)(F)F.O=C(NCCCn1cc[n+]2[c]1[Ir-3]13([c]4cccc5ccc6ccc[n+]1c6c45)([c]1cccc4ccc5ccc[n+]3c5c14)[n+]1ccccc1-2)[c-]1cccc1.[Fe+2].c1cc[cH-]c1 [IV-i] | 2.8 | 5.1 | 48.1 | 28.7 | 1.9 | 7.8 | 8.5 | 5.3 µM | 0.27 | 7.0 | 21.9 | 1.6 |  |  |  |  |  |  |  |  | GI50 ([2]; MiapaCa2, blue light): 0.37 µM; SI (vs MC3T3) ([3]; PC3, dark): 1.7 |
| F[P-](F)(F)(F)(F)F.O=C(NCCCn1cc[n+]2[c]1[Ir-3]13([c]4ccccc4-c4c5ccccc5cc[n+]41)([c]1ccccc1-c1c4ccccc4cc[n+]13)[n+]1ccccc1-2)[c-]1cccc1.[Fe+2].c1cc[cH-]c1 [IV-h] | 2.8 | 24.6 | 63.8 | 15.7 | 2.9 | 2.2 | 21.4 | 6 µM | 0.058 | 10.2 | 22.4 | 20.1 |  |  |  |  |  |  |  |  | GI50 ([1]; blue light 458 nm, read-out: GI50 mean over non-tumor models, irradiated): 4.45 µM; SI (vs MC3T3) ([2]; MiapaCa2, blue light): 86.2; SI (vs NIH-3T3) ([2]; MiapaCa2, dark): 7.8; GI50 ([2]; MiapaCa2, dark): 1.7 µM; SI (vs MC3T3) ([3]; PC3, blue light): 77.6; GI50 ([3]; PC3, dark, read-out: GI50): 1.3 µM; selectivity for cancer cells over non-tumor cells, in words [4]: most selective effects under irradiated conditions; GI50 ([4]; blue light 458 nm, read-out: GI50 mean over cancer cells, irradiated): 0.155 µM; increase in cell toxicity in cancer cells compared to non-tumor models ([4]; irradiated conditions): 29 fold |
| F[P-](F)(F)(F)(F)F.O=C(O)CC[C@H](NC(=O)N[C@@H](CCCCNC(=O)CCn1cc[n+]2[c]1[Ir-3]13([c]4cccc5ccc6ccc[n+]1c6c45)([c]1cccc4ccc5ccc[n+]3c5c14)[n+]1ccccc1-2)C(=O)O)C(=O)O [III-i] |  |  |  |  |  |  |  |  | 8.72 |  | 6.6 |  |  |  |  |  |  |  |  |  | GI50 ([5]; 8 h in the dark, blue light 458 nm 10 min, then dark up to 72 h, read-out: GI50 DU145 Blue): 8.2 µM; GI50 ([5]; DU145, blue light, read-out: GI50): 8.16 µM; Photosensitizing index (PI) ([5]; DU145, dark vs blue light): 5.6; GI50 ([5]; DU145, dark, read-out: GI50): 45.3 µM; SI (vs MC3T3) DU145 Blue ([5]; blue light 458 nm): 5.0; SI (vs NIH-3T3) DU145 Blue ([5]; blue light 458 nm): 6.8; SI (vs NIH-3T3) DU145 Dark ([5]; dark): >2.2; GI50 ([5]; in the dark, 72 h, read-out: GI50 DU145 Dark): 45.3 µM; GI50 ([3]; 8 h in the dark, blue light 458 nm 10 min, then dark up to 72 h, read-out: GI50 PC-3 Blue): 8.7 µM; GI50 ([3]; PC3, dark, read-out: GI50): 57.2 µM; SI (vs MC3T3) PC-3 Blue ([3]; blue light 458 nm): 4.7; SI (vs MC3T3) PC-3 Dark ([3]; dark): 4.4; SI (vs NIH-3T3) PC-3 Dark ([3]; dark): >1.7; GI50 ([3]; in the dark, 72 h, read-out: GI50 PC-3 Dark): 57.2 µM |
| F[P-](F)(F)(F)(F)F.O=C(CCCC[C@@H]1SC[C@@H]2NC(=O)N[C@@H]21)NCCCn1cc[n+]2[c]1[Ir-3]13([c]4ccccc4-c4c5ccccc5cc[n+]41)([c]1ccccc1-c1c4ccccc4cc[n+]13)[n+]1ccccc1-2 [I-h] |  |  |  |  |  |  |  |  |  |  |  | 19.0 | 0.99 | 12.0 | 11.9 | 1 | 1.7 | 24.8 | 24.8 | 19.3 | SI (vs NIH-3T3) MCF7 Dark (MCF7 breast cancer cells): 8.6; SI (vs NIH-3T3) Scaber Blue ([6]; blue light 458 nm): 10.4; SI (vs NIH-3T3) Scaber Dark [6]: 4.1 |
| F[P-](F)(F)(F)(F)F.O=C(CCCC[C@@H]1SC[C@@H]2NC(=O)N[C@@H]21)NCCCn1cc[n+]2[c]1[Ir-3]13([c]4ccccc4-c4sc5ccccc5[n+]41)([c]1ccccc1-c1sc4ccccc4[n+]13)[n+]1ccccc1-2 [I-k] |  |  |  |  |  |  |  |  |  |  |  | 12.9 | 1.5 | 9.9 | 14.9 | 1.8 | 1.0 | 14.4 | 25.9 | 12.2 | SI (vs NIH-3T3) MCF7 Blue (MCF7 breast cancer cells; blue light 458 nm): 20.7; SI (vs MC3T3) MCF7 Dark (MCF7 breast cancer cells): 1.7; SI (vs MC3T3) Scaber Blue ([6]; blue light 458 nm): 10.7; SI (vs NIH-3T3) Scaber Blue ([6]; blue light 458 nm): 17.3; SI (vs NIH-3T3) Scaber Dark [6]: 2.9; selectivity for cancer cells over non-tumor cells, in words [4]: most selective effects under irradiated conditions; GI50 values, range over tumor cell lines, dark ([4]; in the dark): little toxicity against tumor cells under dark conditions |
| F[P-](F)(F)(F)(F)F.O=C(NCCCn1cc[n+]2[c]1[Ir-3]13([c]4ccccc4-c4sc5ccccc5[n+]41)([c]1ccccc1-c1sc4ccccc4[n+]13)[n+]1ccccc1-2)[c-]1cccc1.[Fe+2].c1cc[cH-]c1 [IV-k] | 2.8 | 6.9 | 36.3 | 18.7 | 1.8 | 3.2 | 9.4 | 6.8 µM and 5.8 µM |  | 17.3 | 7.9 | 1.8 |  |  |  |  |  |  |  |  | SI (vs MC3T3) ([2]; MiapaCa2, blue light): 15.9; GI50 ([2]; MiapaCa2, blue light): 0.32 µM; SI (vs NIH-3T3) ([2]; MiapaCa2, dark): 8.5; GI50 ([2]; MiapaCa2, dark): 2.2 µM; SI (vs MC3T3) (MCF7 breast cancer cells; MCF7, blue light): 8.2; GI50 (MCF7 breast cancer cells; MCF7, blue light, read-out: GI50): 0.62 µM; SI (vs MC3T3) ([3]; PC3, blue light): 37.0; GI50 ([3]; PC3, dark, read-out: GI50): 1.1 µM |
| F[P-](F)(F)(F)(F)F.O=C(CCCC[C@@H]1SC[C@@H]2NC(=O)N[C@@H]21)NCCCn1cc[n+]2[c]1[Ir-3]13([c]4ccccc4-c4ccc5ccccc5[n+]41)([c]1ccccc1-c1ccc4ccccc4[n+]13)[n+]1ccccc1-2 [I-g] |  |  |  |  |  |  |  |  |  |  |  | 7.5 | 2.2 | 6.3 | 13.8 | 2.5 | 3.9 | 5.6 | 14.1 | 6.0 | SI (vs MC3T3) MCF7 Blue (MCF7 breast cancer cells; blue light 458 nm): 14.3; SI (vs NIH-3T3) MCF7 Blue (MCF7 breast cancer cells; blue light 458 nm): 28.0; SI (vs MC3T3) MCF7 Dark (MCF7 breast cancer cells): 4.0; SI (vs NIH-3T3) Scaber Blue ([6]; blue light 458 nm): 24.7; selectivity for cancer cells over non-tumor cells, in words [4]: most selective effects under irradiated conditions |
| COC(=O)c1ccc2[n+](c1)[Ir-3]13([c]4ccccc4-2)([c]2ccccc2-c2ccc(C(=O)OC)c[n+]21)[c]1n(CCCNC(=O)CCCC[C@@H]2SC[C@@H]4NC(=O)N[C@@H]42)cc[n+]1-c1cccc[n+]13.F[P-](F)(F)(F)(F)F [I-e] |  |  |  |  |  |  |  |  |  |  |  | 8.4 | 12.2 | 11.9 | 145 | 14.7 | <1 | >6.8 | > 100 | 6.2 | SI (vs NIH-3T3) MCF7 Blue (MCF7 breast cancer cells; blue light 458 nm): 11.1; SI (vs MC3T3) MCF7 Dark (MCF7 breast cancer cells): 0.4; SI (vs NIH-3T3) MCF7 Dark (MCF7 breast cancer cells): >1.7; SI (vs NIH-3T3) Scaber Dark [6]: >2.5 |
